Measurements as given in PMC7324608 (Scientific Reports, 2020).
Changes are numbered by the printed parent chain. Where two headings read alike, the source gives them in different places.

Key:
HpHtrA [1] = target: T1, HpHtrA (Helicobacter pylori, UniProt G2J5T2); assay: FRET peptide assay of HpHtrA activity; type: biochemical; details: 5 µM FRET peptide, 250 nM HpHtrA, 37 °C, 50 mM HEPES pH 7.4, read-out: IC50 of HpHtrA inhibition
T1 construct: (HpHtrA, G18-K475, UniProt G2J5T2); GST (N, cleaved yes); made in house; host or cells: E. coli BL21
T1 sequence (G2J5T2 18-475): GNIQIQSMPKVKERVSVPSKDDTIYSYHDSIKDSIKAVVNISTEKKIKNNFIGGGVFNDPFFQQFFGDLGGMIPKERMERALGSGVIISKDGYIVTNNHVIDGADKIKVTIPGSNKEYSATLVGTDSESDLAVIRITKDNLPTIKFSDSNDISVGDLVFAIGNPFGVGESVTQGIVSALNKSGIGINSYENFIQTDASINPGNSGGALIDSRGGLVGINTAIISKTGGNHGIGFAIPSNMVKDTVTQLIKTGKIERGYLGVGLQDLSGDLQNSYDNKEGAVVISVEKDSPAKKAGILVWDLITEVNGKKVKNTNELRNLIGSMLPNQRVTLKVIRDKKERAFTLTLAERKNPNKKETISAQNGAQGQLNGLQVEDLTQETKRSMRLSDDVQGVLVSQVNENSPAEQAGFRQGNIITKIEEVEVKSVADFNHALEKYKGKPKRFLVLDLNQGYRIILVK
Excerpt: For the establishment of a FRET-based assay for the quantification of the HpHtrA activity, the 2-Abz/3-nitrotyrosine FRET pair[53]–[55] was introduced into the sequence AQRVAF: the fluorophore (2-Abz, Ex/Em 320/435 nm) was coupled at the N-terminus, whereas the quencher (3-nitrotyrosine, Ex 425 nm[56]) was positioned at the C-end. The FRET activity of this peptide was first confirmed by measuring the fluorescence emission in the range 400–450 nm before and after the trypsin-mediated cleavage of the peptide bond R_V (Fig. S3). The measurements were performed in a black, flat-bottom 96-well plate (Nunc, Thermo Scientific, Schwerte, Germany) at 37 °C. 5 µM of the peptide were incubated with 250 nM HpHtrA and 125 nM trypsin in 50 mM HEPES buffer (pH 7.4). […] Cleavage of the peptide leads to increasing fluorescence, which was measured in a plate reader (Infinite 200 PRO, TECAN, Groedig, Austria) with a filter setting of 320 nm/425 nm (Ex/Em). Statistical analysis was performed with GraphPad Prism software (Vers. 8.0.2). […] Three independent experiments containing three technical replicates were analyzed for every sample. Significance is indicated as non-significant (ns) for p > 0.05, * for p < 0.05, ** for p < 0.01, *** for p < 0.001, and **** for p < 0.0001.

HpHtrA D165A = target: T2, HpHtrA D165A (Helicobacter pylori, UniProt G2J5T2, D165A); assay: thermal shift assay; type: binding; design: (HpHtrA, G18-K475, UniProt G2J5T2); GST (N, cleaved yes); made in house; host or cells: E. coli BL21
T2 sequence (G2J5T2 18-475 D165A): T1 sequence (G2J5T2 18-475) with D148A
Experimental: Recombinant HpHtrA proteins (wt, S164A, D165A, S166A, D168A) in 50 mM HEPES buffer (pH 7.4) were mixed with SYPRO Orange (Sigma-Aldrich, Vienna, Austria) to final concentrations of 4 µM HpHtrA and 7 × SYPRO Orange in a 96-well PCR plate. […] Fluorescence data was collected using an Applied Bioscience StepOne Plus PCR cycler (Thermo Fisher Scientific, Schwerte, Germany) during a temperature ramp from 25–95 °C (0.5 °C per min) with a 4 min hold at 25 °C and 95 °C. SYPRO Orange binds to exposed hydrophobic regions within the denatured HpHtrA proteins, which increases the fluorescence of the dye[57],[58]. The fluorescence emission signal can then be used to determine the melting temperature of the protein, which is located at the infliction point of the fluorescence signal curve. The experiment was performed in triplicates.

HpHtrA wt = target: T3, HpHtrA wt (Helicobacter pylori, UniProt G2J5T2); assay: HpHtrA oligomerization, non-reducing SDS-PAGE; design: (HpHtrA, G18-K475, UniProt G2J5T2); GST (N, cleaved yes); made in house; host or cells: E. coli BL21
T3 sequence (G2J5T2 18-475): T1 sequence (G2J5T2 18-475)
Experimental: Non-reducing sample buffer without β-mercaptoethanol was added and the samples were separated by SDS-PAGE containing 0.1% casein (Carl Roth, Karlsruhe, Germany) as a substrate. The gel was incubated for 60 min in renaturing buffer (2.5% Triton X-100) and equilibrated for 30 min in developing buffer (50 mM Tris–HCl, pH 7.4, 200 mM NaCl, 5 mM CaCl2, and 0.02% Brij-35) at room temperature under gentle agitation. Afterwards, the gel was incubated for 24 h at 37 °C in developing buffer under gentle agitation. To visualize caseinolytic activity, the gel was stained in 0.5% Coomassie Brilliant Blue R250 (Carl Roth, Karlsruhe, Germany). For detection of multimers by SDS-PAGE, HpHtrA was separated by SDS-PAGE under non-reducing conditions. Proteins were visualized by staining with Coomassie Brilliant Blue G250. Independent experiments were repeated at least four times.

HpHtrA [2] = target: T1, HpHtrA; assay: in vitro E-cadherin (hCdh1) cleavage by HpHtrA (Western blot); type: biochemical; details: 50 ng hCdh1, 250 ng HpHtrA, 16 h, 37 °C; for effect on HpHtrA-mediated hCdh1 cleavage/fragmentation: 1 mM
Excerpt: The proteins were separated by SDS-PAGE and visualized by staining with Coomassie Brilliant Blue G250 (Lactan, Vienna, Austria). […] Proteins were separated using SDS-PAGE and blotted onto a nitrocellulose membrane. Human Cdh1 was detected by an antibody recognizing the EC5 domain of hCdh1 (Abcam, Cambridge, UK) and a polyclonal serum was used to detect HpHtrA[22]. Independent experiments were repeated at least three times.

| Compound | IC50 (HpHtrA [1]; after 15 min) | IC50 (HpHtrA [1]; after 180 min) | thermal destabilization (ΔTm) (HpHtrA D165A; compared with wt and S164A) | stabilization of HpHtrA wt oligomers (HpHtrA wt; low concentrations, Coomassie-stained SDS-PAGE, non-reducing) | effect on HpHtrA-mediated hCdh1 cleavage/fragmentation (HpHtrA [2]) | thermal stabilization (ΔTm) (HpHtrA D165A; low/increasing concentrations of ion) | concentration sufficient to enhance oligomerization or the stability of HpHtrA (HpHtrA wt; Coomassie-stained gel, non-reducing conditions) | concentration that clearly inhibited HpHtrA-mediated hCdh1 fragmentation (HpHtrA [2]) |
| --- | --- | --- | --- | --- | --- | --- | --- | --- |
| [Cu+2] [Cu^++, CuCl2] | 295 nM | 937 nM | more strongly destabilized | only slightly stabilized | strongly decreased | – | – | – |
| [Zn+2] [Zn^++, ZnCl2] | 650 nM | 2570 nM | – | – | strongly decreased | did not stabilize | 50 µM | 50 µM |
